The test system of experiment [1] is apomorphine-induced stereotypy. The experiment is described as follows: Apomorphine-induced stereotypy in rats (APO). In kind it is in vivo. To be noted: Rattus norvegicus. The protocol: Apomorphine-Induced Stereotypy in Rats (APO)
Apomorphine (1.0 mg/kg, i.v.)-induced stereotypy (compulsive sniffing, licking, chewing) was scored every 5 min. over the first hour after injection of apomorphine, following a 1 hour interval pre-treatment with the test compound. The score system was: (3) pronounced, (2) moderate, (1) slight, and (O) absent.

The target in experiment [2] is T1, Rat recombinant PDE10A (rPDE10A2) (Rattus norvegicus, UniProt Q9QYJ6).
T1 construct: made in house; host or cells: Sf9 insect cells, baculovirus
T1 sequence (Q9QYJ6 1-794): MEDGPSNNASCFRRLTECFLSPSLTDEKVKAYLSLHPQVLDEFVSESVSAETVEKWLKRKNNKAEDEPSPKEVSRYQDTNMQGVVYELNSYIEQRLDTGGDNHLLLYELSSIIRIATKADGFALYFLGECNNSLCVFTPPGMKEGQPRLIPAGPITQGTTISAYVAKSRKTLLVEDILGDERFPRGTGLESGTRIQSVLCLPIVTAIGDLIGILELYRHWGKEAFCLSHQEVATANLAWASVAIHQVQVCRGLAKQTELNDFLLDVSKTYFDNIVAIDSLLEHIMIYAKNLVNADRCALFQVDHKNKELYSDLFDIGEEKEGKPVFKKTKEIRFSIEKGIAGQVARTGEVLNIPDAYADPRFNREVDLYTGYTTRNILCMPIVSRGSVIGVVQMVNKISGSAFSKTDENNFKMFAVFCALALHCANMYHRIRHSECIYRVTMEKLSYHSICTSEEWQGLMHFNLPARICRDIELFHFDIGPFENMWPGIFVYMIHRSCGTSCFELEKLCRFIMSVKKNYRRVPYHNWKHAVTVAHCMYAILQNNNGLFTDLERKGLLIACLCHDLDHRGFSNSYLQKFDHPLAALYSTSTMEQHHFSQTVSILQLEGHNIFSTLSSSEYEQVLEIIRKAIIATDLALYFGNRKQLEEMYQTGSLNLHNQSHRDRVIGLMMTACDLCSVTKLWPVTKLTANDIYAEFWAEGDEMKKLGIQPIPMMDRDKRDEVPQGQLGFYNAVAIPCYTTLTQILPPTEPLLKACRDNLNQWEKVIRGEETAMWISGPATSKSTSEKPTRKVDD
The experiment is described as follows: In vitro assay PDE10A (SPA, 3H-cAMP). In kind it is biochemical. To be noted: pIC50 corresponds to the -log IC50 expressed in mol/L; for IC50: read-out: PDE10A2 pIC50 (converted). As to the method: Rat recombinant PDE10A (rPDE10A2) was expressed in Sf9 cells using a recombinant rPDE10A baculovirus construct. Cells were harvested after 48 h of infection and the rPDE10A protein was purified by metal chelate chromatography on Ni-sepharose 6FF. Tested compounds were dissolved and diluted in 100% DMSO to a concentration 100 fold of the final concentration in the assay. Compound dilutions (0.4 μl) were added in 384 well plates to 20 μl of incubation buffer (50 mM Tris pH 7.8, 8.3 mM MgCl2, 1.7 mM EGTA). 10 μl of rPDE10A enzyme in incubation buffer was added and the reaction was started by addition of 10 μl substrate to a final concentration of 60 nM cAMP and 0.008 μCi ^3H-cAMP. The reaction was incubated for 60 min. at RT. […] After sedimentation of the beads during 30 min. the radioactivity was measured in a Perkin Elmer Topcount scintillation counter and results were expressed as cpm. For blank values the enzyme was omitted from the reaction and replaced by incubation buffer. Control values were obtained by addition of a final concentration of 1% DMSO instead of compound. The same assay principle is applied for the measurement of the affinity of the compound for other members of the PDE family with appropriate modifications in incubation buffer, substrate concentration, incubation time and stop solution.

Setting [3] is: not active at 2.5 or at 10 mg/kg, not further tested, read-out: APO ED50 (not active at threshold dose).

Like-named read-outs stand apart in the source and are kept apart here. Some results are limits rather than exact numbers.

A word on the ED50: it is the dose that gives a 50% effect, or the effect in half of the subjects. On to `COCCc1ncc(-c2c(C)nc3c(N4CCOCC4)nccn23)cc1F` [compound 17, 3-[5-Fluoro-6-(2-methoxy-ethyl)-pyridin-3-yl]-2-methyl-8-morpholin-4-yl-imidazo[1,2-a]pyrazine], for which the ED50 in experiment [1] (setting [3]) is greater than 2.5 mg/kg. For the same molecule, the IC50 in experiment [2] was 275 nM.

Turning to `COCCCn1cc(-c2c(C)nc3c(-c4ccncc4)nccn23)cn1` [compound 102], in experiment [1] (read-out: APO ED50), the ED50 was 5 mg/kg. In experiment [2], the IC50 was 166 nM.

With `COCCn1cc(-c2c(C)nc3c(N4CCOCC4)nccn23)cn1` [compound 35, 2-Methyl-3-[1-(2-methoxy-ethyl)-1H-pyrazol-4-yl]-8-morpholin-4-yl-imidazo[1,2-a]pyrazine], in experiment [1] (read-out: APO ED50), the ED50 stood at 5 mg/kg.

With `COCCc1ccc(-c2c(C)nc3c(N4CCCC4)nccn23)cn1` [compound 124], the ED50 in experiment [1] (setting [3]) is greater than 2.5 mg/kg.

In the case of `Cc1nc2c(N3CCOCC3)nccn2c1-c1cnn(Cc2ccc(Cl)cc2)c1` [compound 121], the ED50 in experiment [1] (setting [3]) was greater than 2.5 mg/kg. In addition, the IC50 in experiment [2] was 372 nM.

Regarding `COCCc1cc(-c2c(C)nc3c(N4CCOCC4)nccn23)ccn1` [compound 19, 3-[2-(2-Methoxy-ethyl)-pyridin-4-yl]-2-methyl-8-morpholin-4-yl-imidazo[1,2-a]pyrazine], the ED50 in experiment [1] (setting [3]) was greater than 2.5 mg/kg.

In the case of `Cc1nc2c(N3CCOCC3)nccn2c1-c1ccnc(NC(C)C)c1` [compound 22, Isopropyl-[4-(2-methyl-8-morpholin-4-yl-imidazo[1,2-a]pyrazin-3-yl)-pyridin-2-yl]-amine], in experiment [1] (setting [3]), the ED50 is greater than 2.5 mg/kg. The IC50 in experiment [2] was 97.7 nM.

For the molecule `COc1nc2c(N3CCOCC3)nccn2c1-c1ccc(CC(C)(C)OC)nc1` [compound 95], the ED50 in experiment [1] (setting [3]) is greater than 2.5 mg/kg. The IC50 in experiment [2] is 141 nM.

Turning to `Cc1nc2c(N3CCOCC3)nccn2c1-c1cnn(Cc2ccncc2)c1` [compound 77], the ED50 in experiment [1] (read-out: APO ED50) is no more than 10 mg/kg. In experiment [2], the “PDE10A2 pIC50” value is on record as 6.99.

`COC(C)(C)COc1ccc(-c2c(C3CC3)nc3c(N4CCOCC4)nccn23)cn1` [compound 105]: in experiment [1] (setting [3]), the ED50 was greater than 2.5 mg/kg. Moreover, the IC50 in experiment [2] is 174 nM.

Consider `CO[C@@H](C)Cn1cc(-c2c(C)nc3c(-c4ccncc4)nccn23)cn1` [compound 101], for which the ED50 in experiment [1] (read-out: APO ED50) stood at 3.1 mg/kg. Further, the IC50 in experiment [2] was 162 nM.

For the molecule `COCCc1ccc(-c2c(C3CC3)nc3c(N4CCOCC4)nccn23)cn1` [compound 10, 2-Cyclopropyl-3-[6-(2-methoxy-ethyl)-pyridin-3-yl]-8-morpholin-4-yl-imidazo[1,2-a]pyrazine], the ED50 in experiment [1] (read-out: APO ED50) worked out at 1.2 mg/kg.

On to `Cc1nc2c(N3CCOCC3)nccn2c1-c1ccc(CCOC(C)C)nc1` [compound 21, 3-[6-(2-Isopropoxy-ethyl)-pyridin-3-yl]-2-methyl-8-morpholin-4-yl-imidazo[1,2-a]pyrazine], for which the ED50 in experiment [1] (read-out: APO ED50) was determined as 1.2 mg/kg.

Consider `COC(C)(C)Cc1ccc(-c2c(C)nc3c(N4CCOCC4)nccn23)cn1` [compound 7, 3-[6-(2-Methoxy-2-methyl-propyl)-pyridin-3-yl]-2-methyl-8-morpholin-4-yl-imidazo[1,2-a]pyrazine], for which, in experiment [1] (read-out: APO ED50), the ED50 is 1.2 mg/kg.

For `COCCOc1ccc(-c2c(C)nc3c(N4CCOCC4)nccn23)cn1` [compound 1, 3-[6-(2-Methoxy-ethoxy)-pyridin-3-yl]-2-methyl-8-morpholin-4-yl-imidazo[1,2-a]pyrazine], the ED50 in experiment [1] (po, * compound was not soluble and was tested orally as a suspension, read-out: APO ED50) amounted to 0.8 mg/kg.

In the case of `Cc1nc2c(N3CCOCC3)nccn2c1-c1ccc(N2CCNCC2)nc1` [compound 23, 2-Methyl-8-morpholin-4-yl-3-(6-piperazin-1-yl-pyridin-3-yl)-imidazo[1,2-a]pyrazine], the ED50 in experiment [1] (setting [3]) was greater than 2.5 mg/kg.

On to `CCc1ccc(-c2c(C)nc3c(N4CCOCC4)nccn23)cn1` [compound 26, 3-(6-Ethyl-pyridin-3-yl)-2-methyl-8-morpholin-4-yl-imidazo[1,2-a]pyrazine], for which the ED50 in experiment [1] (setting [3]) is greater than 2.5 mg/kg.

As to `Cc1nc2c(N3CCOCC3)nccn2c1-c1ccc(N2CCCC2)nc1` [compound 123], the ED50 in experiment [1] (setting [3]) was greater than 2.5 mg/kg.

`Cc1nc2c(N3CCOCC3)nccn2c1-c1ccc(CCO)nc1` [compound 18, 2-[5-(2-Methyl-8-morpholin-4-yl-imidazo[1,2-a]pyrazin-3-yl)-pyridin-2-yl]-ethanol]: the ED50 in experiment [1] (setting [3]) was greater than 2.5 mg/kg.

As for `Cc1nc2c(N3CCOCC3)nccn2c1-c1ccc(CC(C)C)nc1` [compound 106], the ED50 in experiment [1] (setting [3]) is greater than 2.5 mg/kg.

Turning to `Cc1nc2c(N3CCOCC3)nccn2c1-c1coc(CC(C)C)n1` [compound 41, 3-(2-Isobutyl-oxazol-4-yl)-2-methyl-8-morpholin-4-yl-imidazo[1,2-a]pyrazine], in experiment [1] (read-out: APO ED50), the median effective dose (ED50) was 5 mg/kg.

In the case of `Cc1nc2c(-c3ccncc3)nccn2c1-c1cnn(CC2CCCCO2)c1` (single isomer, unassigned) [compound 92], the IC50 in experiment [2] was 135 nM.

Turning to `CC(=O)Cn1cc(-c2c(C)nc3c(N4CCOCC4)nccn23)cn1` [compound 117], the IC50 in experiment [2] is 309 nM.

Take `CCc1nc2c(N3CCOCC3)nccn2c1-c1cnn(CCOC)c1` [compound 100]: in experiment [1] (read-out: APO ED50), the ED50 was found to be 5 mg/kg.

Consider `COCCc1ccc(-c2c(C(C)C)nc3c(N4CCOCC4)nccn23)cn1` [compound 13, 2-Isopropyl-3-[6-(2-methoxy-ethyl)-pyridin-3-yl]-8-morpholin-4-yl-imidazo[1,2-a]pyrazine], for which the ED50 in experiment [1] (setting [3]) is greater than 2.5 mg/kg.

For the molecule `CCOCc1ccc(-c2c(C)nc3c(N4CCOCC4)nccn23)cn1` [compound 5, 3-(6-Ethoxymethyl-pyridin-3-yl)-2-methyl-8-morpholin-4-yl-imidazo[1,2-a]pyrazine], the ED50 in experiment [1] (setting [3]) was greater than 2.5 mg/kg.

In the case of `CO[C@H]1CCN(c2ccc(-c3c(C)nc4c(N5CCOCC5)nccn34)cn2)C1` [compound 24, (S)-3-[6-(3-Methoxy-pyrrolidin-1-yl)-pyridin-3-yl]-2-methyl-8-morpholin-4-yl-imidazo[1,2-a]pyrazine], in experiment [1] (setting [3]), the ED50 is greater than 2.5 mg/kg.

As for `Cc1nc2c(N3CCOCC3)nccn2c1-c1ccc(C(C)C)nc1` [compound 107], the ED50 in experiment [1] (read-out: APO ED50) is 5 mg/kg.

On to `CCOCCc1ccc(-c2c(C)nc3c(N4CCOCC4)nccn23)cn1` [compound 20, 3-[6-(2-Ethoxy-ethyl)-pyridin-3-yl]-2-methyl-8-morpholin-4-yl-imidazo[1,2-a]pyrazine], for which, in experiment [1] (read-out: APO ED50), the ED50 turned out to be 1.2 mg/kg.

`CCOCCn1cc(-c2c(C)nc3c(-c4ccncc4)nccn23)cn1` [compound 128]: in experiment [2], the IC50 is 468 nM.

Take `Cc1nc2c(N3CCOCC3)nccn2c1-c1cnn(CC(=O)C2CC2)c1` [compound 98]: the IC50 in experiment [2] was 145 nM.

Consider `Cc1nc2c(N3CCOCC3)nccn2c1-c1ccc(NC(C)C)nc1` [compound 103], for which, in experiment [1] (setting [3]), the ED50 was greater than 2.5 mg/kg.

Take `Cc1nc2c(N3CCOCC3)nccn2c1-c1ccc(CCN2CCCC2)nc1` [compound 140]: the IC50 in experiment [2] is 871 nM.

Turning to `COCCCc1ccc(-c2c(C)nc3c(N4CCOCC4)nccn23)cn1` [compound 6, 3-[6-(3-Methoxy-propyl)-pyridin-3-yl]-2-methyl-8-morpholin-4-yl-imidazo[1,2-a]pyrazine], in experiment [1] (read-out: APO ED50), the ED50 is no more than 2.5 mg/kg.

As to `Cc1nc2c(N3CCOCC3)nccn2c1-c1cnn(CCCF)c1` [compound 86], the IC50 in experiment [2] is 123 nM.

For `COCCc1ccc(-c2c(C)nc3c(N4CCOCC4)nccn23)nc1` [compound 31, 3-[5-(2-Methoxy-ethyl)-pyridin-2-yl]-2-methyl-8-morpholin-4-yl-imidazo[1,2-a]pyrazine], the ED50 in experiment [1] (setting [3]) was greater than 2.5 mg/kg.

In the case of `COCCn1cc(-c2c(C)nc3c(N4CCOCC4)nc(C4CC4)cn23)cn1` [compound 37, 6-Cyclopropyl-3-[1-(2-methoxy-ethyl)-1H-pyrazol-4-yl]-2-methyl-8-morpholin-4-yl-imidazo[1,2-a]pyrazine], in experiment [2], the IC50 was 490 nM.

The record behind these values is US8859543B2, “Imidazo[1,2-a]pyrazine derivatives and their use for the prevention or treatment of neurological, psychiatric and metabolic disorders and diseases” (Janssen Pharmaceutica NV, priority 2010, dated 2014).
